In data set [1] the test system is Fatty Liver Induced by Carbon Tetrachloride. Kind of data set: Therapeutic effect on fatty liver induced by carbon tetrachloride. The format is in vivo, rats (SD strain). Also noted: Apoprotein: unit not given here. On the procedure:
Carbon tetrachloride (1ml/kg) was subcutaneously administered to rats (SD strain, ? , 38 week-old, n=5) for 4 days. Upon expiration of 3 days from the administration of carbon tetrachloride, Compound 6 was orally given successively for 7 days at the dose of 50mg/kg. On the 8th day, the animals were sacrificed by exsanguination. The therapeutic effect was evaluated by examining the content of triglyceride in the liver and the concentration of apoprotein B in the plasma. […]

In data set [2] the test system is Acute Liver Injury Induced by Carbon Tetrachloride. The data set can be described thus: Protective effect on acute liver injury induced by carbon tetrachloride. Format: in vivo, mice (ddY mice). The following applies: for Liver Damage Index: 50mg/kg orally in olive oil 6 hours before carbon tetrachloride (0.05ml/kg orally), visual score 0: normal, 2: slightly, 4: distinctly, 6: remarkably injured, n=5, CCl4 alone 6.0; for inhibition in vivo at 50 mg/kg: Mus musculus, po, 50mg/kg orally 6 hours before carbon tetrachloride (0.05ml/kg orally), CCl4 alone 0, Normal 100. Here is the method: A test compound was dissolved or suspended in olive oil and administered orally at a dose of 50mg/kg to mice (ddY mice, ? , 23 ± 2g, n=5). After 6 hours, carbon tetrachloride (0.05ml/kg) was administered orally. 24 Hours after the administration of carbon tetrachloride, BSP (sodium sulfobromophthalene; 75mg/kg) was administered intravenously. Thirty minutes later, the cardiac blood was collected, and GPT (glutamic-pyruvic transaminase) activity and the retention rate of BSP in the plasma were measured. Further, the liver injury immediately after the collection of the blood was visually observed and evaluated by the following score for liver damage index. 0: normal 2: Slightly injured 4: distinctly injured 6: remarkably injured

Data set [3] relates to mice (ddY mice). Kind of data set: Acute toxicity test. The format is in vivo. As to conditions: oral in olive oil, mortality one week after the administration, n=5. On the procedure: A test compound was dissolved or suspended in olive oil and administered orally to mice (ddY mice, ? , 23±2g, n=5). The acute toxicity value (LD₅₀) was determined from the mortality one week after the administration.

Data set [4] relates to Protein Synthesis in Liver. Kind of data set: Effect on protein synthesis in liver. The format is in vivo, rats (Wister strain). The following applies: 100mg/kg orally for 3 days. Here is the method:
Compound 6 was dissolved in olive oil and orally administered successively for 3 days at a dose of 100mg/kg to rats (Wister strain, ? , 180±10g, 6 week-old, n=5). 24 Hours after the administration of the test compound was completed, the animals were sacrificed. The effect on the protein synthesis in the liver was evaluated by determining the liver weight and protein content.

In data set [5] the test system is Acute Liver Injury Induced by D-Galactosamine. The data set can be described thus: Protective effect on acute liver injury induced by D-galactosamine. The format is in vivo, rats (SD strain). As to conditions: 50mg/kg orally twice daily for 6 days, D-galactosamine 200mg/kg x 3 i.p.; for Glucose / P-GPT: plasma 48 hours after first injection; for Glucose: D-Galactosamine alone 32±4, Normal 142±4; for P-GPT: D-Galactosamine alone 4825±590, Normal 29±2; for ALP: alkaline phosphatase in plasma, D-Galactosamine alone 176±6, Normal 500±63. On the procedure: A test compound was dissolved or suspended in olive oil and orally administered twice daily for 6 days at a dose of 50mg/kg to rats (SD strain, ? , 225 ±15g, 7 weeks-old, n=5). On the 6th day, D-galactosamine (200mg/kg x 3) was intraperitoneally administered three times at 3-hour intervals. 48 Hours after the first injection of D-galactosamine, the animals were sacrificed by exsanguination from the abdominal aorta. The protective effect was evaluated by examining the biochemical parameters (p-GPT, glucose, alkaline phosphatase) in plasma.

The mark [6] stands for this setting: 24.5 h, retention rate of BSP in plasma 30 minutes after BSP 75mg/kg i.v., read-out: % Prophylaxis BSP.
Where [7] appears, read: plasma GPT about 24.5 hours after CCl4, read-out: % Prophylaxis p-GPT.

Like-named read-outs stand apart in the source and are kept apart here.

As to `CC(=O)C(C(=O)c1ccccc1)=C1SC=CS1` [Compound 6, 2-(1,3-dithiol-2-ylidene)-1-phenyl-1,3-butanedione], the “effect for curing the fatty liver” value in data set [1] (50mg/kg orally for 7 days, rats with CCl4-induced fatty liver, statement in words) was “significant effect for curing the fatty liver”. This compound also showed an Apoprotein in data set [1] (apoprotein B in plasma, carbon tetrachloride 1ml/kg s.c. for 4 days, compound 50mg/kg orally for 7 days, CCl4 alone 66± 2, Normal 125± 8) of 112± 23. Besides, the Triglyceride in data set [1] (carbon tetrachloride 1ml/kg s.c. for 4 days, compound 50mg/kg orally for 7 days, liver content on the 8th day, CCl4 alone 99± 6, Normal 33± 5) is reported as 33± 7 mg/g-liver. Moreover, in data set [2], the “Liver Damage Index” value amounted to 0.4. Besides, the inhibition in vivo at 50 mg/kg in data set [2] (setting [6]) came out at 103%. Also, the inhibition in vivo at 50 mg/kg in data set [2] (setting [7]) was 100%. For the same compound, the “acute toxicity value (LD50)” value in data set [3] is “at least 2 g”. For the same compound, the “Liver Weight” value in data set [4] (24 hours after last administration, Control 6.3±0.1) is 8.6±0.3 g/100g b.w. The “Liver Protein” value in data set [4] (24 hours after last administration, Control 883±79) is reported as 1247±62 mg/100g b.w. Also, in data set [4] (statement in words), the “effect for stimulating the protein metabolic function of the liver” value was “substantial effect for stimulating the protein metabolic function of the liver”. Also, in data set [5], the Glucose was determined as 81 ± 9 mg/dL, the P-GPT is 908±248 U/l and the ALP is 398±45 U/l.

On to `CCCC(=O)C(C(=O)c1ccccc1)=C1SC=CS1` [Compound 7, 2-(1,3-dithiol-2-ylidene)-1-phenyl-1,3-hexanedione], for which the “Liver Damage Index” value in data set [2] came out at 1.6. The figures for the inhibition in vivo at 50 mg/kg in data set [2] (setting [6]) and in data set [2] (setting [7]) were 108% and 100%, respectively. In addition, the “acute toxicity value (LD50)” value in data set [3] is “at least 2 g”.

With `CC(C)CC(=O)C(C(=O)c1ccccc1)=C1SC=CS1` [Compound 8, 2-(1,3-dithiol-2-ylidene)-5-methyl-1-phenyl-1,3-hexanedione], the “Liver Damage Index” value in data set [2] amounted to 1.2. In addition, the inhibition in vivo at 50 mg/kg in data set [2] (setting [6]) was found to be 110%; in data set [2] (setting [7]) it was 100%. The “acute toxicity value (LD50)” value in data set [3] is recorded as “at least 2 g”.

As for `CC(=O)C(C(=O)c1ccc(C)cc1)=C1SC=CS1` [Compound 12, 2-(1,3-dithiol-2-ylidene)-1-(4-methylphenyl)-1,3-butanedione], in data set [2], the “Liver Damage Index” value is reported as 0.6. Besides, the inhibition in vivo at 50 mg/kg in data set [2] (setting [6]) is 114%; in data set [2] (setting [7]), 100%. For the same compound, the “acute toxicity value (LD50)” value in data set [3] is “at least 2 g”.

Turning to `COc1ccc(C(=O)C(C(C)=O)=C2SC=CS2)cc1` [Compound 17, 2-(1,3-dithiol-2-ylidene)-1-(4-methoxyphenyl)-1,3-butanedione], the “Liver Damage Index” value in data set [2] stood at 0. The inhibition in vivo at 50 mg/kg in data set [2] (setting [6]) and in data set [2] (setting [7]) was 100% each time. Also, the “acute toxicity value (LD50)” value in data set [3] is listed as “at least 2 g”.

Take `CC(=O)C(C(=O)c1cccc2ccccc12)=C1SC=CS1` [Compound 27, 2-(1,3-dithiol-2-ylidene)-1-(1-naphthyl)-1,3-butanedione]: the “Liver Damage Index” value in data set [2] stood at 0. Also, the inhibition in vivo at 50 mg/kg in data set [2] (setting [6]) and in data set [2] (setting [7]) was 100% each time. For the same compound, the “acute toxicity value (LD50)” value in data set [3] was “at least 2 g”.

`CC(=O)C(C(=O)c1ccc2ccccc2c1)=C1SC=CS1` [Compound 28, 2-(1,3-dithiol-2-ylidene)-1-(2-naphthyl)-1,3-butanedione]: in data set [2], the “Liver Damage Index” value was 0. Also, the inhibition in vivo at 50 mg/kg in data set [2] (setting [6]) was found to be 100%; in data set [2] (setting [7]) it was 99%. In addition, the “acute toxicity value (LD50)” value in data set [3] is on record as “at least 2 g”.

With `CC(=O)C(C(=O)c1ccc(O)cc1)=C1SC=CS1` [Compound 45, 2-(1,3-dithiol-2-ylidene)-1-(4-hydroxyphenyl)-1,3-butanedione], the “Liver Damage Index” value in data set [2] was found to be 0.2. Further, the inhibition in vivo at 50 mg/kg amounted to 111% in data set [2] (setting [6]) and 100% in data set [2] (setting [7]). The “acute toxicity value (LD50)” value in data set [3] is given as “at least 2 g”.

`CC(=O)C(C(=O)c1nc2ccccc2[nH]1)=C1SC=CS1` [Compound 47, 2-(1,3-dithiol-2-ylidene)-1-(2-benzimidazolyl)-1,3-butanedione]: in data set [2], the “Liver Damage Index” value amounted to 2.4. Further, the inhibition in vivo at 50 mg/kg in data set [2] (setting [6]) was determined as 103%. The inhibition in vivo at 50 mg/kg in data set [2] (setting [7]) was 91%. In addition, in data set [5], the Glucose was 55 ± 2 mg/dL, the P-GPT amounted to 2938±694 U/l and the ALP is given as 287±25 U/l.

The record behind these values is EP0210284B1, “1,3-Dithiol-2-ylidene derivatives” (priority 1985, dated 1987).
